Laboratory results taken from article PMC7061854, “Population Pharmacokinetics of Caspofungin and Dosing Optimization in Children With Allogeneic Hematopoietic Stem Cell Transplantation” (Frontiers in Pharmacology, 2020).
Values after ≈ are worked out from the molar mass of the structure shown. Like-named read-outs stand apart in the source and are kept apart here.

Assays:
clinical = format: in vivo, human; details: for AUC(0-t) / clearance: human, in vivo, iv; for AUC(0-t): median ± standard deviation, read-out: AUC24
Experimental: A prospective, open-label pharmacokinetic study of caspofungin was performed at Wuhan Children's Hospital, Hubei Province. All designed procedures conformed to the legal requirements and the ethics committee of Wuhan Children's Hospital approved this study.
(§1) Caspofungin has been approved for use in patients with IFI that requiring prevention treatment, especially for patients undergoing allo-HSCT. In total, 48 patients, received allo-HSCT, fulfilled the enrollment criteria and provided informed in the model building group between July 2017 and March 2019. They received caspofungin as a 1-h intravenous infusion on the basis of body surface area (BSA) with 50 mg/m^2 maintenance dose daily followed by 70 mg/m^2 loading dose on day 1.
We performed an opportunistic sampling strategy when a steady-state caspofungin concentration had been achieved. Plasma was placed on ice and centrifuged (15,000 rpm for 5 min at +4°C) immediately and then stored at −80°C prior to analysis. Then we recorded the dosing and infusion time as well as sampling time prospectively.
Caspofungin concentrations were detected by a high-performance liquid chromatography method (Agilent Technologies Inc., 1260 infinity) with ultraviolet (UV) performed on detection by fluorescence. The excitation wavelength was 220 nm, the column temperature was 30 °C, and the pump flow rate was 0.8 ml/min. A solution of 42% acetonitrile was used as the mobile phase. We employed 0.5 ml of serum loaded on solid-phase extraction column (Agela Technologies, Cleanert ODS C18, 200 mg/3 ml) and then eluted with 60% acetonitrile. An Innoval C18 column (Agela Technologies, 10 μm, 4.6 × 250 mm) was used for separation. The calibration curve ranged from 0.6 to 20 mg/L. The inter- and intra-assay coefficients of variation of controls were all less than 5%. The lower limit of quantification (LLOQ) was 0.6 mg/L.
The PopPK study was performed by applying the non-linear mixed-effect modeling program Phoenix NLME (Version 8.1, Pharsight Corporation) and R program (Version 3.5.1, http://www.r-project.org/).
We tried to describe the pharmacokinetic process of caspofungin in vivo by using the one- or two-compartment models. The scale model and exponential model were adopted for intra-individual variation and inter-individual variation respectively. A forward and backward selection process was used for covariate analysis. The effects of demographic characteristics including age, body weight (WT), height, BSA, biological parameters including uric acid (UA), serum cystatin C (Cys-C), estimated glomerular filtration rate (eGFR), alanine aminotransferase (ALT), aspartate aminotransferase (AST), and gama-glutamyltranspeptidase (gama-GT) that were investigated as potential covariates on PK parameters. eGFR was calculated according to the modified Schwarta formula ([Schwartz et al., 2009]). Mosteller formula was used to calculate the body surface area (BSA) as follows ([Yang et al., 2019]):
BSA(m^2)=[height(cm)×weight(kg)/3600]^1/2
During the forward selection step, the covariate causing the objective function value (OFV) decreased more than 3.84 (P < 0.05, χ2 distribution, df = 1), the covariate was included into the model, thereafter we tested the remaining covariates.
In this study, goodness-of-fit plots, bootstrap, visual predictive check (VPC), and normalized prediction distribution errors (NPDEs) were adopted to model validation. Bootstrap resampling 1,000 times in the modeling data, and the model was established with the sampling data set. We compared the similarity between bootstrap model parameters and the parameters in final model. VPC simulated 1,000 virtual data with the final model and analyze whether the 95% confidence interval (CI) of the simulated data contains the original data. NPDEs also adopted simulation technology and simulated 1,000 times based on the final model to investigated the distribution of the standard error and perform the normal distribution test.

[1] = tested on: invasive fungal infections (IFI); assay: Clinical outcome of caspofungin prophylaxis for fungal infections during HSCT; format: in vivo, human
Experimental: as §1
In this study, 48 patients received caspofungin (loading dose of 70 mg/m^2 followed by 50 mg/m^2) as prophylaxis for fungal infections for a period of HSCT. The diagnosis of IFI mainly relied on a chest computed tomography (CT), clinical symptoms, blood culture, G test, and GM test. Patients were considered a probable IFI case with a chest CT scan positive for a halo or air crescent sign and large mass flocculent shadow. Routine blood culture, as long as the patients who receive bronchoscopy are all sent to receive bronchoalveolar lavage fluid culture meanwhile high throughput sequencing to find the pathogenic bacteria. […] The culture of bronchoalveolar lavage fluid was negative in three cases for consecutive two times and positive for C. parapsilosis in one case that was identified as C. parapsilosis infection (MIC = 0.5 mg/L). […]

C. parapsilosis [2] = assay: MIC of the isolate cultured from bronchoalveolar lavage fluid; format: cell-based, Candida parapsilosis; details: isolate of one failed prophylaxis case
Experimental: In this study, 48 patients received caspofungin (loading dose of 70 mg/m^2 followed by 50 mg/m^2) as prophylaxis for fungal infections for a period of HSCT. The diagnosis of IFI mainly relied on a chest computed tomography (CT), clinical symptoms, blood culture, G test, and GM test. Patients were considered a probable IFI case with a chest CT scan positive for a halo or air crescent sign and large mass flocculent shadow. Routine blood culture, as long as the patients who receive bronchoscopy are all sent to receive bronchoalveolar lavage fluid culture meanwhile high throughput sequencing to find the pathogenic bacteria. […] The culture of bronchoalveolar lavage fluid was negative in three cases for consecutive two times and positive for C. parapsilosis in one case that was identified as C. parapsilosis infection (MIC = 0.5 mg/L). The median ± standard deviation of AUC24 in successful and failed cases group are 394.93 ± 91.14 mg·h/L and 352.08 ± 24.43 mg·h/L (t = 0.929, P = 0.358) at the loading dose, 300.37 ± 88.3 mg·h/L and 247.71 ± 33.67 mg·h/L (t = 1.175, P = 0.246) at the maintenance dose respectively. […] They were much lower than fungicidal target AUC24/MIC ratios ⩾ 1185 for C. parapsilosis. At the maintenance dose AUC24/MIC ratios were lower than the fungistatic target AUC24/MIC ratios ⩾ 559 for C. parapsilosis, which might lead to the failure of preventive treatment.

C. albicans [3] = details: ref Andes et al., 2010; cited from earlier work
Excerpt: (§2) The likely success of treatment identified with the probability of target attainment (PTA) by comparing the pharmacodynamic exposure against an minimal inhibitory concentration (MIC) distribution. […] A PK/PD target was defined as the ratio AUC24/MIC for candidiasis. […] Fungistatic ...

C. glabrata [4] = details: ref Andes et al., 2010; cited from earlier work
Excerpt: as §2

C. albicans [5] = details: ref Pfaller et al.; cited from earlier work
Experimental: Table 4 The area under the concentration-time curve (AUC)/minimal inhibitory concentration (MIC) target probability of target attainment (PTA) values(%) against Candida albicans, Candida glabrata, and Candida parapsilosis for caspofungin in pediatric patients. | column: AUC/MIC target PTA(%) / C. albicans MIC90 = 0.04 mg/L / Fungistatic target || Two simulation procedures were performed to calculate the probability of PK/PD target attainment with different dosing regimens based on the final model. One of the procedure is fixed MIC value of Candida app. to simulated the clinical efficacy of the different drug regimens of caspofungin in infants, children (age 2–11 years), and adolescents (age 12–14 years). According to the literature report, the MIC90 value for C. albicans, C. glabrata, and C. parapsilosis are 0.03, 0.06, and 0.5 mg/L ([Pfaller et al.]). Another simulation procedure is not fixed MIC values. The loading doses of caspofung ...

C. glabrata [6] = details: ref Pfaller et al.; cited from earlier work
Experimental: Table 4 The area under the concentration-time curve (AUC)/minimal inhibitory concentration (MIC) target probability of target attainment (PTA) values(%) against Candida albicans, Candida glabrata, and Candida parapsilosis for caspofungin in pediatric patients. | column: AUC/MIC target PTA(%) / C. glabrata MIC90 = 0.06 mg/L / Fungistatic target || Two simulation procedures were performed to calculate the probability of PK/PD target attainment with different dosing regimens based on the final model. One of the procedure is fixed MIC value of Candida app. to simulated the clinical efficacy of the different drug regimens of caspofungin in infants, children (age 2–11 years), and adolescents (age 12–14 years). According to the literature report, the MIC90 value for C. albicans, C. glabrata, and C. parapsilosis are 0.03, 0.06, and 0.5 mg/L ([Pfaller et al.]). Another simulation procedure is not fixed MIC values. The loading doses of caspofung ...

C. parapsilosis [7] = details: ref Pfaller et al.; cited from earlier work
Experimental: Table 4 The area under the concentration-time curve (AUC)/minimal inhibitory concentration (MIC) target probability of target attainment (PTA) values(%) against Candida albicans, Candida glabrata, and Candida parapsilosis for caspofungin in pediatric patients. | column: AUC/MIC target PTA(%) / C. parapsilosis MIC90 = 0.5 mg/L / Fungistatic target || Two simulation procedures were performed to calculate the probability of PK/PD target attainment with different dosing regimens based on the final model. One of the procedure is fixed MIC value of Candida app. to simulated the clinical efficacy of the different drug regimens of caspofungin in infants, children (age 2–11 years), and adolescents (age 12–14 years). According to the literature report, the MIC90 value for C. albicans, C. glabrata, and C. parapsilosis are 0.03, 0.06, and 0.5 mg/L ([Pfaller et al.]). Another simulation procedure is not fixed MIC values. The loading doses of caspofung ...

[8] = median, children 2–12 years old, two-compartment model; ref Yang et al., 2019; cited from earlier work
Excerpt: Others reported weight and disease state had significant effects on caspofungin PKs in pediatric patients ([Li et al., 2011]). Xin-Mei Yang studied the PK of caspofungin in children (2–12 years old).

[9] = Bayesian estimates, mean ± SD, all children, SD
[10] = patients with mild liver dysfunction (40 U/L < AST ⩽ 120 U/L)
[11] = patients with normal liver function

CC[C@H](C)C[C@H](C)CCCCCCCCC(=O)N[C@H]1C[C@@H](O)[C@@H](NCCN)NC(=O)[C@@H]2[C@@H](O)CCN2C(=O)[C@H]([C@H](O)CCN)NC(=O)[C@H]([C@H](O)[C@@H](O)c2ccc(O)cc2)NC(=O)[C@@H]2C[C@@H](O)CN2C(=O)[C@H]([C@@H](C)O)NC1=O [caspofungin, Caspofungin]
θ1 Bootstrap analysis Median Estimate (clinical; 1,000-run bootstrap): 0.91 | θ2 Bootstrap analysis Median Estimate (clinical; 1,000-run bootstrap): −0.25 | BSA-normalized CL (clinical; [9]): 0.19 ± 0.04 L/m^2/h | BSA-normalized Vd (clinical; [9]): 1.72 ± 0.01 L/m^2 | BSA-normalized CL (clinical; adolescents, age 12–14 years, two severe liver dysfunction patients excluded): 0.178 ± 0.039 L/m^2/h | BSA-normalized CL (clinical; children, age 2–11 years, two severe liver dysfunction patients excluded): 0.187 ± 0.031 L/m^2/h | θ1 (exponent for BSA as covariate) Final model Estimate (clinical; final PopPK model): 0.89 | θ2 (exponent for lnAST as covariate for CL) Final model Estimate (clinical; final PopPK model): −0.23 | AUC(0-t) (clinical; 50 mg/m2, failed cases group, at the maintenance dose (50 mg/m^2), SD): 248 ± 33.7 µg·h/mL | AUC(0-t) (clinical; 50 mg/m2, successful cases group, at the maintenance dose (50 mg/m^2), SD): 300 ± 88.3 µg·h/mL | AUC(0-t) (clinical; 70 mg/m2, failed cases group, at the loading dose (70 mg/m^2), SD): 352 ± 24.4 µg·h/mL | AUC(0-t) (clinical; 70 mg/m2, successful cases group, at the loading dose (70 mg/m^2), SD): 395 ± 91.1 µg·h/mL | clearance (clinical; [10]): 1.95 mL/min | clearance (clinical; [11]): 2.67 mL/min | BSA-normalized CL (clinical; infants, two severe liver dysfunction patients excluded): 0.190 ± 0.015 L/m^2/h | θVd (L) Final model Estimate (clinical; one-compartment PopPK model, typical value, 48 children with allo-HSCT, Vd = 1.36 × (BSA/0.79)): 1.36 L | θCL (L·h^−1) Final model Estimate (clinical; one-compartment PopPK model, typical value, CL = 0.14 × (BSA/0.79)^0.89 × (lnAST/3.38)^−0.23): 0.14 L/h | estimated BSA-normalized CL (clinical; [10]): 0.179 ± 0.03 L/m^2/h | estimated BSA-normalized CL (clinical; [11]): 0.188 ± 0.03 L/m^2/h | drug-related adverse events ([1]; 48 caspofungin recipients, standard-dose): we did not find drug-related adverse events | patients with prophylaxis (favorable) outcome ([1]; 48 children with allo-HSCT, loading dose 70 mg/m^2 followed by 50 mg/m^2): 92% | MIC (C. parapsilosis [2]): 0.5 µg/mL | Fungicidal target AUC24/MIC ratio (C. albicans [3]): 865 | Fungistatic target AUC24/MIC ratio (C. albicans [3]): 748 | Fungicidal target AUC24/MIC ratio (C. glabrata [4]): 450 | Fungistatic target AUC24/MIC ratio (C. glabrata [4]): 96.2 | MIC90 (C. albicans [5]): 0.03 µg/mL (≈ 0.0274 µM) | MIC90 (C. glabrata [6]): 0.06 µg/mL (≈ 0.0549 µM) | MIC90 (C. parapsilosis [7]): 0.5 µg/mL (≈ 0.457 µM) | CL [8]: 0.21 L/h/m^2 | central volume distribution [8]: 2.23 L/m^2
